Source: patent publication US9340590B2 (priority 2011, dated 2016)
Positions of bridges follow the written chain, without caps; N, C: chain ends. Residues, ends and D or L forms follow the SMILES beside them.

Assays:
Experiment in all cases: cell-based
hNav1.3 = hNav1.3 (Homo sapiens, UniProt Q9NY46); conditions: IonWorks Quattro, use-dependent block, hNav1.3; read-out: IWQ Use Nav1.3
hNav1.5 = hNav1.5 (Homo sapiens, UniProt Q14524); conditions: IonWorks Quattro, use-dependent block, hNav1.5; read-out: IWQ Use Nav1.5
hNav1.7 = hNav1.7 (Homo sapiens, UniProt Q15858); assay type: cell-based; conditions: IonWorks Quattro, use-dependent block, hNav1.7; read-out: IWQ Use Nav1.7
Chain of hNav1.7 (Q15858 whole entry, looked up): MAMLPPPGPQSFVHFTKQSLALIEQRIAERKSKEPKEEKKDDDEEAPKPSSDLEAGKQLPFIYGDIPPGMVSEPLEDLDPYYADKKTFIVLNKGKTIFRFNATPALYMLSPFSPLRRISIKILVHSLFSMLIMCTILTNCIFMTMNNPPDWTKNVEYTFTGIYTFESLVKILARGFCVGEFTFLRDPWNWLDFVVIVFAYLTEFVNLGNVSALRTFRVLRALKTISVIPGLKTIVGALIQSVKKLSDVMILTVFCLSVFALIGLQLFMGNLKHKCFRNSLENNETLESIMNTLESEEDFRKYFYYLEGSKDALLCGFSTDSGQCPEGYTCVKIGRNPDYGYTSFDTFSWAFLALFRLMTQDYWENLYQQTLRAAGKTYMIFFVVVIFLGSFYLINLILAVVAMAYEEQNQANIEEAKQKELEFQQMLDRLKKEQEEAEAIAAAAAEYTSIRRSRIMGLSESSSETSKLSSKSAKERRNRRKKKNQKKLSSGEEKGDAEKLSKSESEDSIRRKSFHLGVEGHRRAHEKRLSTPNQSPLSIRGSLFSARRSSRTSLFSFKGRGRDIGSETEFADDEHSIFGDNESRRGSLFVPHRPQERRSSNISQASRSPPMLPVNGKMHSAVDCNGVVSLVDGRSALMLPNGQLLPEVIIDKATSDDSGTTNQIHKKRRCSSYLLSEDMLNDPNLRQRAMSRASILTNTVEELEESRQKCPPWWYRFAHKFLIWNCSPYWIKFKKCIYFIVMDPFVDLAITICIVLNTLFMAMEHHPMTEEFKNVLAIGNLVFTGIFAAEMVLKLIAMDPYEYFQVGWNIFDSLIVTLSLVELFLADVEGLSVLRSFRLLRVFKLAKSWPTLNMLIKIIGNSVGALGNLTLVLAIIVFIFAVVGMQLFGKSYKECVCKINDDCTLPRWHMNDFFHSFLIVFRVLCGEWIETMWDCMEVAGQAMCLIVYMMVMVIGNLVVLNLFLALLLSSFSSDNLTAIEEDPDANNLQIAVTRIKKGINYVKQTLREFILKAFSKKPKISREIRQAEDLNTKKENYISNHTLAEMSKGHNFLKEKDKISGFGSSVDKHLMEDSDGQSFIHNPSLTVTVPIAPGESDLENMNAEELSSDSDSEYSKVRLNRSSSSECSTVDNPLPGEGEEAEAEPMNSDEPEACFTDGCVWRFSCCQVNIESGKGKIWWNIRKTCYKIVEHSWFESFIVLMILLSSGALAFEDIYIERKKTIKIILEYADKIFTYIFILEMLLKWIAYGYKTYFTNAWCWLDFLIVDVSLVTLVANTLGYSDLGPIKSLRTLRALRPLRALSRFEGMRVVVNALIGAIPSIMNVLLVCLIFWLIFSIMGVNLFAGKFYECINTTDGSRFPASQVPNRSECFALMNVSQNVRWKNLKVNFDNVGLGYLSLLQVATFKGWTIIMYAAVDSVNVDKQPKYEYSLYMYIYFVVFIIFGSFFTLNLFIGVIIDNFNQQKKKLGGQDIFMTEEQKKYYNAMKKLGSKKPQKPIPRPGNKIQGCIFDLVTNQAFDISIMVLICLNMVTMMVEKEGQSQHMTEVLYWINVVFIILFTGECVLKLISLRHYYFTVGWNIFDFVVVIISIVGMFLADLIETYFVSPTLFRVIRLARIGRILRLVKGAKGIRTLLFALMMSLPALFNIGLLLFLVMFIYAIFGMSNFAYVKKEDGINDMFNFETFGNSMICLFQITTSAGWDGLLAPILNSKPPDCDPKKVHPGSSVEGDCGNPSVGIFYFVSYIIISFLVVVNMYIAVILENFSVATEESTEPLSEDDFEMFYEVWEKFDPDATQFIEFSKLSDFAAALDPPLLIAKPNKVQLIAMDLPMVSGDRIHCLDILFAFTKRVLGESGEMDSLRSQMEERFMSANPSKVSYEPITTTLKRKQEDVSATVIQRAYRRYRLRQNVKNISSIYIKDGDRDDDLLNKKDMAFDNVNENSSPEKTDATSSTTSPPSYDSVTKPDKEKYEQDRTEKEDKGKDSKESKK

Chain of hNav1.3 (Q9NY46 whole entry, looked up): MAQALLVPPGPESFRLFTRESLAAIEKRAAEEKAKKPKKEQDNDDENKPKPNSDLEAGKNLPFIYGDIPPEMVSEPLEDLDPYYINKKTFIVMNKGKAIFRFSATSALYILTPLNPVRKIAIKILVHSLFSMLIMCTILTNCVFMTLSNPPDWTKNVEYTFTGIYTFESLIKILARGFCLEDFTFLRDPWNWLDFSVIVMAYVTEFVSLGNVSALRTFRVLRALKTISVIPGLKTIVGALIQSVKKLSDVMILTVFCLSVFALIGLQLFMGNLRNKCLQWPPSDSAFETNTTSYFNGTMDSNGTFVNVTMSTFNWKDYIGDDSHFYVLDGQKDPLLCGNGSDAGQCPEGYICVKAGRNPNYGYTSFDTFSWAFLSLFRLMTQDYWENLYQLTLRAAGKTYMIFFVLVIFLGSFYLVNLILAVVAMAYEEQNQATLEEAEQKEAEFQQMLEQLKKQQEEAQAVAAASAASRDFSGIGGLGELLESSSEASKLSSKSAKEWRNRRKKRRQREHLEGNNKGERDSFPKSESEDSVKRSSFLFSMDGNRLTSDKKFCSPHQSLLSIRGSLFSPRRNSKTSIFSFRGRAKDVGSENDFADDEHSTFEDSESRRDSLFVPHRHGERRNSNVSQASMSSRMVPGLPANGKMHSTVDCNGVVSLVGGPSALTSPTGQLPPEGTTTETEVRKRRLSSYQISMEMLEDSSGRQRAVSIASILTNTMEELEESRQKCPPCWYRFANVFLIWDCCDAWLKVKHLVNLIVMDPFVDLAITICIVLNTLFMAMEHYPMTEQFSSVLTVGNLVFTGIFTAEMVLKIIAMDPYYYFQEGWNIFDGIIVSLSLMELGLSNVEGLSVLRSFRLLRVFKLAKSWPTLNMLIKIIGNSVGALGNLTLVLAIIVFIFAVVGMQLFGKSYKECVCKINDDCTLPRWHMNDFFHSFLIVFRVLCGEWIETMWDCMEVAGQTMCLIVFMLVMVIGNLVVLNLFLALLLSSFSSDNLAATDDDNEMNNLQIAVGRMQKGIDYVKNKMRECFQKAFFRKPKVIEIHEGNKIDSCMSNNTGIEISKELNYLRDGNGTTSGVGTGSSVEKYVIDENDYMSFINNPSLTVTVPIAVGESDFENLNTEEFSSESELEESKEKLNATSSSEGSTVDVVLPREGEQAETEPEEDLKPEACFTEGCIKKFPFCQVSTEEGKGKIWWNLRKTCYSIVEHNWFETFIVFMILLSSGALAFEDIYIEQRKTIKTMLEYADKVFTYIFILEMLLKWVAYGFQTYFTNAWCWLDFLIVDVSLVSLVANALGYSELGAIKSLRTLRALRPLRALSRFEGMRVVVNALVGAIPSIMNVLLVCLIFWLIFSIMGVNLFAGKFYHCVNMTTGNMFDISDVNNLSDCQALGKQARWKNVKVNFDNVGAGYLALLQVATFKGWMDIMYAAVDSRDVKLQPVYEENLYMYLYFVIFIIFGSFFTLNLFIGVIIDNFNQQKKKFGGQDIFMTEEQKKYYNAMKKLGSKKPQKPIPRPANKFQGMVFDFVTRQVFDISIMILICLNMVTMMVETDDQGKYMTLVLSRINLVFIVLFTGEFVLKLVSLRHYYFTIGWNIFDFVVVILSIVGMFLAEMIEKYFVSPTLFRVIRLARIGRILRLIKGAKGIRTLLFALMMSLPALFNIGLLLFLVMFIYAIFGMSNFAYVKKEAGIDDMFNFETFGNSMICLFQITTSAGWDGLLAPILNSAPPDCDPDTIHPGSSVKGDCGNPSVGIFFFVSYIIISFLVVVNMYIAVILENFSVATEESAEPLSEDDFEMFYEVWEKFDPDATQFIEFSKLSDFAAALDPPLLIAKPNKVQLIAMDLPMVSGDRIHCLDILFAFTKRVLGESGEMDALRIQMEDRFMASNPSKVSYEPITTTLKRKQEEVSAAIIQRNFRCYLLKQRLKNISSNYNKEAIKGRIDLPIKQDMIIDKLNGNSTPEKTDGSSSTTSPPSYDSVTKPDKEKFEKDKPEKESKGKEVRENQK

Structure (SMILES)	IC50 (hNav1.3)	IC50 (hNav1.5)	IC50 (hNav1.7)
CC[C@H](C)[C@@H]1NC(=O)[C@@H]2CSSC[C@@H]3NC(=O)[C@H](C(C)C)NC(=O)[C@H](CC(C)C)NC(=O)[C@H](CC(N)=O)NC(=O)[C@@H]4CCCN4C(=O)[C@H](CCCNC(=N)N)NC(=O)[C@H](CSSC[C@H](NC(=O)[C@@H](N)CC(=O)O)C(=O)N[C@@H](CC(C)C)C(=O)NCC(=O)N[C@@H](C)C(=O)N[C@@H](Cc4ccccc4)C(=O)N[C@@H](CCCNC(=N)N)C(=O)N[C@@H](CCCCN)C(=O)N2)NC(=O)[C@H](CSSC[C@@H](C(=O)N[C@@H](CCCCN)C(=O)N[C@@H](Cc2ccc(O)cc2)C(=O)N[C@H](C(=O)N[C@@H](Cc2ccccc2)C(=O)O)C(C)C)NC(=O)[C@H](Cc2c[nH]c4ccccc24)NC(=O)[C@H](CCCNC(=N)N)NC(=O)[C@H](Cc2c[nH]cn2)NC(=O)[C@H]([C@@H](C)O)NC(=O)[C@H](CCCNC(=N)N)NC(=O)[C@H](CO)NC3=O)NC(=O)[C@H](CCCCN)NC(=O)[C@H](CC(=O)O)NC(=O)[C@H](C)NC(=O)[C@H](CC(=O)O)NC(=O)[C@@H]2CCCN2C1=O [compound 836] (H-DCLGAFRKCIPDADKCCRPNLVCSRTHRWCKYVF-OH; disulfide 2-17, 9-23, 16-30)	1.3 µM	> 5 µM	4.1 µM
CC[C@H](C)[C@@H]1NC(=O)[C@@H]2CSSC[C@@H]3NC(=O)[C@H](C(C)C)NC(=O)[C@H](CC(C)C)NC(=O)[C@H](CC(N)=O)NC(=O)[C@@H]4CCCN4C(=O)[C@H](CCCNC(=N)N)NC(=O)[C@H](CSSC[C@H](NC(=O)[C@@H](N)CC(=O)O)C(=O)N[C@@H](CC(C)C)C(=O)NCC(=O)N[C@@H](C)C(=O)N[C@@H](Cc4ccccc4)C(=O)N[C@@H](CCCNC(=N)N)C(=O)N[C@@H](CCCCN)C(=O)N2)NC(=O)[C@H](CSSC[C@@H](C(=O)N[C@@H](CCCCN)C(=O)N[C@@H](Cc2ccc(O)cc2)C(=O)N[C@H](C(=O)N[C@@H](Cc2ccccc2)C(=O)O)C(C)C)NC(=O)[C@H](Cc2c[nH]c4ccccc24)NC(=O)[C@H](CCCNC(=N)N)NC(=O)[C@H](Cc2c[nH]cn2)NC(=O)[C@H]([C@@H](C)O)NC(=O)[C@H](CCCNC(=N)N)NC(=O)[C@H](CO)NC3=O)NC(=O)[C@H](CCCCN)NC(=O)[C@H](CC(=O)O)NC(=O)[C@H](CC(=O)O)NC(=O)[C@H](CC(=O)O)NC(=O)[C@@H]2CCCN2C1=O [compound 837]	2.3 µM	> 5 µM	> 5 µM
CC[C@H](C)[C@@H]1NC(=O)[C@@H]2CSSC[C@@H]3NC(=O)[C@H](C(C)C)NC(=O)[C@H](CC(C)C)NC(=O)[C@H](CC(N)=O)NC(=O)[C@@H]4CCCN4C(=O)[C@H](CCCNC(=N)N)NC(=O)[C@H](CSSC[C@H](NC(=O)[C@@H](N)CC(=O)O)C(=O)N[C@@H](CC(C)C)C(=O)NCC(=O)N[C@@H](C)C(=O)N[C@@H](Cc4ccccc4)C(=O)N[C@@H](CCCNC(=N)N)C(=O)N[C@@H](CCCCN)C(=O)N2)NC(=O)[C@H](CSSC[C@@H](C(=O)N[C@@H](CCCCN)C(=O)N[C@@H](Cc2ccc(O)cc2)C(=O)N[C@H](C(=O)N[C@@H](Cc2ccccc2)C(=O)O)C(C)C)NC(=O)[C@H](Cc2c[nH]c4ccccc24)NC(=O)[C@H](CCCNC(=N)N)NC(=O)[C@H](Cc2c[nH]cn2)NC(=O)[C@H]([C@@H](C)O)NC(=O)[C@H](CCCNC(=N)N)NC(=O)[C@H](CO)NC3=O)NC(=O)[C@H](CCCCN)NC(=O)[C@H](CC(=O)O)NC(=O)[C@H](CCC(=O)O)NC(=O)[C@H](CC(=O)O)NC(=O)[C@@H]2CCCN2C1=O [compound 838]	1.9 µM	> 5 µM	> 5 µM
CC[C@H](C)[C@@H]1NC(=O)[C@@H]2CSSC[C@@H]3NC(=O)[C@H](C(C)C)NC(=O)[C@H](CC(C)C)NC(=O)[C@H](CC(N)=O)NC(=O)[C@@H]4CCCN4C(=O)[C@H](CCCNC(=N)N)NC(=O)[C@H](CSSC[C@H](NC(=O)[C@@H](N)CC(=O)O)C(=O)N[C@@H](CC(C)C)C(=O)NCC(=O)N[C@@H](C)C(=O)N[C@@H](Cc4ccccc4)C(=O)N[C@@H](CCCNC(=N)N)C(=O)N[C@@H](CCCCN)C(=O)N2)NC(=O)[C@H](CSSC[C@@H](C(=O)N[C@@H](CCCCN)C(=O)N[C@@H](Cc2ccc(O)cc2)C(=O)N[C@H](C(=O)N[C@@H](Cc2ccccc2)C(=O)O)C(C)C)NC(=O)[C@H](Cc2c[nH]c4ccccc24)NC(=O)[C@H](CCCNC(=N)N)NC(=O)[C@H](Cc2c[nH]cn2)NC(=O)[C@H]([C@@H](C)O)NC(=O)[C@H](CCCNC(=N)N)NC(=O)[C@H](CO)NC3=O)NC(=O)[C@H](CCCCN)NC(=O)[C@H](CC(=O)O)NC(=O)[C@H](Cc2ccccc2)NC(=O)[C@H](CC(=O)O)NC(=O)[C@@H]2CCCN2C1=O [compound 839]	1.2 µM	> 5 µM	> 5 µM
CC[C@H](C)[C@@H]1NC(=O)[C@@H]2CSSC[C@@H]3NC(=O)[C@H](C(C)C)NC(=O)[C@H](CC(C)C)NC(=O)[C@H](CC(N)=O)NC(=O)[C@@H]4CCCN4C(=O)[C@H](CCCNC(=N)N)NC(=O)[C@H](CSSC[C@H](NC(=O)[C@@H](N)CC(=O)O)C(=O)N[C@@H](CC(C)C)C(=O)NCC(=O)N[C@@H](C)C(=O)N[C@@H](Cc4ccccc4)C(=O)N[C@@H](CCCNC(=N)N)C(=O)N[C@@H](CCCCN)C(=O)N2)NC(=O)[C@H](CSSC[C@@H](C(=O)N[C@@H](CCCCN)C(=O)N[C@@H](Cc2ccc(O)cc2)C(=O)N[C@H](C(=O)N[C@@H](Cc2ccccc2)C(=O)O)C(C)C)NC(=O)[C@H](Cc2c[nH]c4ccccc24)NC(=O)[C@H](CCCNC(=N)N)NC(=O)[C@H](Cc2c[nH]cn2)NC(=O)[C@H]([C@@H](C)O)NC(=O)[C@H](CCCNC(=N)N)NC(=O)[C@H](CO)NC3=O)NC(=O)[C@H](CCCCN)NC(=O)[C@H](CC(=O)O)NC(=O)CNC(=O)[C@H](CC(=O)O)NC(=O)[C@@H]2CCCN2C1=O [compound 840]	1.5 µM	> 5 µM	> 5 µM
CC[C@H](C)[C@@H]1NC(=O)[C@@H]2CSSC[C@@H]3NC(=O)[C@H](C(C)C)NC(=O)[C@H](CC(C)C)NC(=O)[C@H](CC(N)=O)NC(=O)[C@@H]4CCCN4C(=O)[C@H](CCCNC(=N)N)NC(=O)[C@H](CSSC[C@H](NC(=O)[C@@H](N)CC(=O)O)C(=O)N[C@@H](CC(C)C)C(=O)NCC(=O)N[C@@H](C)C(=O)N[C@@H](Cc4ccccc4)C(=O)N[C@@H](CCCNC(=N)N)C(=O)N[C@@H](CCCCN)C(=O)N2)NC(=O)[C@H](CSSC[C@@H](C(=O)N[C@@H](CCCCN)C(=O)N[C@@H](Cc2ccc(O)cc2)C(=O)N[C@H](C(=O)N[C@@H](Cc2ccccc2)C(=O)O)C(C)C)NC(=O)[C@H](Cc2c[nH]c4ccccc24)NC(=O)[C@H](CCCNC(=N)N)NC(=O)[C@H](Cc2c[nH]cn2)NC(=O)[C@H]([C@@H](C)O)NC(=O)[C@H](CCCNC(=N)N)NC(=O)[C@H](CO)NC3=O)NC(=O)[C@H](CCCCN)NC(=O)[C@H](CC(=O)O)NC(=O)[C@H](Cc2c[nH]cn2)NC(=O)[C@H](CC(=O)O)NC(=O)[C@@H]2CCCN2C1=O [compound 841]	> 5 µM	> 5 µM	> 5 µM
